Reference: PubChem BioAssay AID330 (DTP/NCI, 2004)
Several values for one entry are separate records, joined by “and”; a condition that tells them apart may be missing. Equal entries are not always repeated. Toxic doses and inconclusive results are not listed. The calls were made as follows: active = survival T/C of 150% or more; inactive = T/C below 125% in these data.

System: P388 leukemia ip, CD2F1 mice, survival T/C
Experiment: NCI In Vivo Anticancer Drug Screen. Data for tumor model P388 Leukemia (intraperitoneal) in CD2F1 (CDF1) mice
Conditions: endpoint: median survival time, higher = longer survival
Procedure, shortened: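 Mice carrying the transplanted tumor received test compound or vehicle. Survival was recorded in each group, and the value is the treated-group measurement divided by that of the vehicle-treated control group.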

[1] = dose: 50.0 mg/kg/injection, schedule: Q01DX009 (ip), vehicle: Klucel (hydroxypropylcellulose) (HPC)
[2] = dose: 100.0 mg/kg/injection, schedule: Q01DX009 (ip), vehicle: Klucel (hydroxypropylcellulose) (HPC)
[3] = dose: 200.0 mg/kg/injection, schedule: Q01DX009 (ip), vehicle: Klucel (hydroxypropylcellulose) (HPC)
[4] = dose: 100.0 mg/kg/injection, schedule: Q01DX009 (ip), vehicle: saline with Tween-80
[5] = dose: 200.0 mg/kg/injection, schedule: Q01DX009 (ip), vehicle: saline with Tween-80
[6] = dose: 400.0 mg/kg/injection, schedule: Q01DX009 (ip), vehicle: saline with Tween-80
[7] = dose: 100.0 mg/kg/injection, schedule: Q04DX003 (ip), vehicle: saline with Tween-80
[8] = dose: 200.0 mg/kg/injection, schedule: Q04DX003 (ip), vehicle: saline with Tween-80
[9] = dose: 400.0 mg/kg/injection, schedule: Q04DX003 (ip), vehicle: saline with Tween-80
[10] = dose: 25.0 mg/kg/injection, schedule: Q01DX005 (ip), vehicle: Klucel (hydroxypropylcellulose) (HPC)
[11] = dose: 50.0 mg/kg/injection, schedule: Q01DX005 (ip), vehicle: Klucel (hydroxypropylcellulose) (HPC)
[12] = dose: 200.0 mg/kg/injection, schedule: Q01DX005 (ip), vehicle: Klucel (hydroxypropylcellulose) (HPC)
[13] = dose: 50.0 mg/kg/injection, schedule: Q01DX005 (ip), vehicle: saline with Tween-80
[14] = dose: 100.0 mg/kg/injection, schedule: Q01DX005 (ip), vehicle: saline with Tween-80
[15] = dose: 200.0 mg/kg/injection, schedule: Q01DX005 (ip), vehicle: saline with Tween-80
[16] = dose: 50.0 mg/kg/injection, schedule: Q01DX009 (ip), vehicle: saline with Tween-80
[17] = dose: 50.0 mg/kg/injection, schedule: Q01DX005 (ip), vehicle: saline
[18] = dose: 100.0 mg/kg/injection, schedule: Q01DX005 (ip), vehicle: saline
[19] = dose: 200.0 mg/kg/injection, schedule: Q01DX005 (ip), vehicle: saline
[20] = dose: 100.0 mg/kg/injection, schedule: Q01DX001 (ip), vehicle: saline
[21] = dose: 200.0 mg/kg/injection, schedule: Q01DX001 (ip), vehicle: saline

Measured: T/C

CCOC1(NC(=O)N(C)C)CC1
inactive: dose: 50.0 mg/kg/injection, schedule: Q04DX003 (ip), vehicle: saline 103 % of control | dose: 100.0 mg/kg/injection, schedule: Q04DX003 (ip), vehicle: saline 102 % of control | dose: 200.0 mg/kg/injection, schedule: Q04DX003 (ip), vehicle: saline 102 % of control

O/N=C(/CN1CCOCC1)c1ccccc1
inactive: [1] 105 % of control | [2] 100 % of control | [3] 102 % of control

ClC(Cl)(Cl)C(N1CCN(c2ccccc2)CC1)N1CCN(c2ccccc2)CC1
inactive: [4] 101 % of control | [5] 101 % of control | [6] 106 % of control | dose: 600.0 mg/kg/injection, schedule: Q01DX009 (ip), vehicle: saline with Tween-80 100 % of control

COP(=O)(OC)C(=[N+]=[N-])c1ccccc1
inactive: dose: 6.25 mg/kg/injection, schedule: Q01DX009 (ip), vehicle: water 98 % of control | dose: 12.5 mg/kg/injection, schedule: Q01DX009 (ip), vehicle: water 106 % of control | dose: 50.0 mg/kg/injection, schedule: Q01DX009 (ip), vehicle: water 93 % of control | dose: 100.0 mg/kg/injection, schedule: Q01DX009 (ip), vehicle: water 98 % of control | dose: 200.0 mg/kg/injection, schedule: Q01DX009 (ip), vehicle: water 90 % of control

COC(=O)/C(Br)=C/N(Cc1ccccc1)Cc1ccccc1
inactive: [4] 110 % of control | [7] 95 % of control | [5] 100 % of control | [8] 95 % of control | [6] 110 % of control | [9] 95 % of control

COc1cc2c(c(O)c1O)-c1ccc(OC)c(=O)cc1C(NC(C)=O)CC2 (stereo not given)
inactive: dose: 1.25 mg/kg/injection, schedule: Q01DX009 (ip), vehicle: water 97 % of control | dose: 2.5 mg/kg/injection, schedule: Q01DX009 (ip), vehicle: water 97 % of control | dose: 5.0 mg/kg/injection, schedule: Q01DX009 (ip), vehicle: water 100 % of control | dose: 10.0 mg/kg/injection, schedule: Q01DX009 (ip), vehicle: water 100 % of control | dose: 20.0 mg/kg/injection, schedule: Q01DX009 (ip), vehicle: water 97 % of control | dose: 40.0 mg/kg/injection, schedule: Q01DX009 (ip), vehicle: distilled water + Tween-80 108 % of control | dose: 80.0 mg/kg/injection, schedule: Q01DX009 (ip), vehicle: distilled water + Tween-80 122 % of control

CCCn1c(CC)nc([N+](=O)[O-])c1Sc1ncn[nH]1
inactive: [10] 123 % of control | [11] 108 % of control | [12] 113 % of control

COc1cccc(/C=C/C(=O)c2ccc(Cl)cc2)c1OC
inactive: [7] 100 % of control | [8] 100 % of control | [9] 90 % of control

COC(=O)C1(OC)C(=O)NC2=C1C(=O)c1ccccc1C2=O (stereo not given)
inactive: [13] 94 % of control | [14] 105 % of control | [15] 106 % of control

O=[N+]([O-])C(Br)(CO)CCC(Br)(CO)[N+](=O)[O-] (stereo not given)
inactive: dose: 6.25 mg/kg/injection, schedule: Q01DX001 (ip), vehicle: Klucel (hydroxypropylcellulose) (HPC) 111 % of control | dose: 12.5 mg/kg/injection, schedule: Q01DX001 (ip), vehicle: Klucel (hydroxypropylcellulose) (HPC) 104 % of control | dose: 25.0 mg/kg/injection, schedule: Q01DX001 (ip), vehicle: Klucel (hydroxypropylcellulose) (HPC) 107 % of control

C[C@H](N)C(=O)NCCNC(=O)[C@H](C)N
inactive: dose: 60.0 mg/kg/injection, schedule: Q01DX005 (ip), vehicle: saline 96 % of control | dose: 120.0 mg/kg/injection, schedule: Q01DX005 (ip), vehicle: saline 107 % of control | dose: 240.0 mg/kg/injection, schedule: Q01DX005 (ip), vehicle: saline 105 % of control

CCS/C(C#N)=C(/Br)c1ccc(OC)cc1
inactive: [16] 98 % of control | [4] 100 % of control

NC(=S)N/N=C/c1ccc2c(c1)OCO2
inactive: [16] 100 % of control | [4] 100 % of control

C1=CCC2COCC2C1 (stereo not given)
inactive: [16] 98 % of control | [4] 102 % of control | [5] 100 % of control

CC1=C(C(=O)Nc2ccccc2)C(/C=C/c2ccccc2)C(C(=O)Nc2ccccc2)=C(C)N1
inactive: dose: 25.0 mg/kg/injection, schedule: Q01DX001 (ip), vehicle: saline with Tween-80 92 % of control | dose: 50.0 mg/kg/injection, schedule: Q01DX001 (ip), vehicle: saline with Tween-80 89 % of control | dose: 100.0 mg/kg/injection, schedule: Q01DX001 (ip), vehicle: saline with Tween-80 96 % of control

CCN(CC)CCOC(=O)C1c2ccccc2-c2ccccc21
inactive: dose: 50.0 mg/kg/injection, schedule: Q01DX005 (ip), vehicle: saline + Tween-80 + alcohol 99 % of control | dose: 100.0 mg/kg/injection, schedule: Q01DX005 (ip), vehicle: saline + Tween-80 + alcohol 95 % of control | dose: 200.0 mg/kg/injection, schedule: Q01DX005 (ip), vehicle: saline + Tween-80 + alcohol 103 % of control

O=c1[nH]c(=O)n(C2CC(O)C(CO)O2)cc1N1CCOCC1 (stereo not given)
inactive: [17] 108 % of control | [18] 101 % of control | [19] 108 % of control

O=[N+]([O-])c1cc2c(ccc3occc32)o1
inactive: [11] 102 % of control | dose: 100.0 mg/kg/injection, schedule: Q01DX005 (ip), vehicle: Klucel (hydroxypropylcellulose) (HPC) 97 % of control | [12] 98 % of control

O=C(O)C1C(C(=O)O)C2(Cl)C(Cl)=C(Cl)C1(Cl)C2(Cl)Cl.[Co] (stereo not given)
inactive: dose: 50.0 mg/kg/injection, schedule: Q01DX001 (ip), vehicle: saline 109 % of control | [20] 109 % of control | [21] 109 % of control

Oc1cc2c(cc1C1COc3cc(OCc4ccccc4)ccc3C1)OCO2 (stereo not given)
inactive: dose: 50.0 mg/kg/injection, schedule: Q01DX001 (ip), vehicle: Klucel (hydroxypropylcellulose) (HPC) 95 % of control | dose: 100.0 mg/kg/injection, schedule: Q01DX001 (ip), vehicle: Klucel (hydroxypropylcellulose) (HPC) 90 % of control | dose: 200.0 mg/kg/injection, schedule: Q01DX001 (ip), vehicle: Klucel (hydroxypropylcellulose) (HPC) 93 % of control

CNC(C)C#N (stereo not given)
inactive: dose: 3.75 mg/kg/injection, schedule: Q01DX005 (ip), vehicle: saline 94 % of control | dose: 7.5 mg/kg/injection, schedule: Q01DX005 (ip), vehicle: saline 100 % of control | dose: 15.0 mg/kg/injection, schedule: Q01DX005 (ip), vehicle: saline 102 % of control

S=c1[nH]ccc2ccccc12
inactive: [1] 100 % of control | [2] 101 % of control | [3] 119 % of control | dose: 400.0 mg/kg/injection, schedule: Q01DX009 (ip), vehicle: Klucel (hydroxypropylcellulose) (HPC) 105 % of control

CC1OC(CC(=O)O)CC2=C1C(=O)c1c(O)cccc1C2=O (stereo not given)
inactive: dose: 3.13 mg/kg/injection, schedule: Q01DX009 (ip), vehicle: saline with Tween-80 94 % of control | dose: 6.25 mg/kg/injection, schedule: Q01DX009 (ip), vehicle: saline with Tween-80 115 % of control and 117 % of control | dose: 12.5 mg/kg/injection, schedule: Q01DX009 (ip), vehicle: saline with Tween-80 110 % of control and 115 % of control | dose: 25.0 mg/kg/injection, schedule: Q01DX009 (ip), vehicle: saline with Tween-80 101 % of control and 114 % of control

COC(CCCNCCCC(OC)OC)OC
inactive: [17] 102 % of control | [18] 103 % of control | [19] 103 % of control

COC(=O)Nc1csc(NC(=O)OC)n1
inactive: [13] 96 % of control | [14] 95 % of control | [15] 87 % of control

CN=C(NC)c1ccc(NC(=O)c2cc(OC)cc(C(=O)Nc3ccc(C(=NC)NC)cc3)c2)cc1
inactive: dose: 6.25 mg/kg/injection, schedule: Q01DX005 (ip), vehicle: Klucel (hydroxypropylcellulose) (HPC) 100 % of control | dose: 12.5 mg/kg/injection, schedule: Q01DX005 (ip), vehicle: Klucel (hydroxypropylcellulose) (HPC) 110 % of control | [10] 110 % of control

Cc1cc2c(cc1C)C(=O)C(CN1CCCCC1)CO2 (stereo not given)
inactive: [20] 107 % of control | [21] 104 % of control
